According to paper PMC9820316, “Novel Arylpiperazine Derivatives of Salicylamide with α1-Adrenolytic Properties Showed Antiarrhythmic and Hypotensive Properties in Rats” (International Journal of Molecular Sciences, 2022):
Marks after values point to notes of the source that are not given here.

Experiments:
[1] = tested on: aconitine-induced arrhythmia model in rats; test: Prophylactic antiarrhythmic activity in aconitine-induced arrhythmia; type: in vivo, rat; conditions: 5 mg/kg iv 15 min before aconitine 20 μg/kg; number of animals with event
[2] = tested on: calcium chloride-induced arrhythmia model in rats; test: Prophylactic antiarrhythmic activity in calcium chloride-induced arrhythmia; type: in vivo, rat; conditions: 5 mg/kg iv 15 min before calcium chloride 140 mg/kg; number of animals with event
normotensive rats = test: Influence on blood pressure in the normotensive rats; type: in vivo, rat; conditions: for DBP—diastolic blood pressure / SBP—systolic blood pressure: mean ± SD
Procedure: The experiment was performed according to the method described earlier. Normotensive Wistar rats were anesthetized with thiopental (75 mg/kg ip). The right carotid artery was cannulated with a polyethylene tube filled with heparin solution, using a Datamax apparatus (Columbus Instruments, Columbus, OH, USA). After 15 min of the stabilization period, the studied compounds were administered iv, and their effect on systolic and diastolic blood pressure was evaluated (Figure 4A).

[3] = tested on: adrenaline-induced arrhythmia model in rats; test: Prophylactic antiarrhythmic activity in adrenaline-induced arrhythmia; type: in vivo, rat; conditions: for Blocks / Bradycardia / Extrasystoles / Mortality: number of animals with event
normal ECG in rats = test: Effect on a normal electrocardiogram in rats; type: in vivo, rat; conditions: 5 mg/kg iv; for HR—heart rate / PQ interval / QRS complex / QTc (Bazzett's formula): mean ± SD; for PQ interval / QRS complex / QTc (Bazzett's formula): in ms (unit assumed)
Procedure: The procedure was performed to exclude the negative effects of the tested compounds on the normal ECG, according to the method described earlier. […] Firstly, animals were anesthetized with thiopental (75 mg/kg ip). […] The influence on PQ, QTc interval, QRS complex, and heart rate was evaluated. The Bazzett’s formula: QTc = QT/√RR was used to calculate QTc. All the studied compounds were administered at a dose of 5 mg/kg.

α2-adrenergic receptors = test: α2-adrenoceptor radioligand binding assay ([3H]-clonidine, rat cortex); conditions: rat cortex tissue, mean ± SEM, n.a. = did not bind at 10^−5 M
Procedure: The α1- and α2-adrenoceptor radioligand binding assays were performed on the rat cerebral cortex using previously described methods. […] The brains were homogenized using the ULTRA-TURRAX homogenizer in 10 mL of an ice-cold 50 mM Tris-HCl buffer (pH 7.6). The homogenates were centrifuged at 20,000× g for 20 min (0–4 °C). Subsequently, the cell pellet was resuspended in the Tris–HCl buffer and centrifuged again. Radioligand binding assays were carried out in plates (MultiScreen/Millipore). The final incubation mixture, with a volume of 300 μL, consisted of 240 μL of the tissue suspension, 30 μL of the radioligand solution, and 30 μL of the buffer containing 7–8 concentrations of the studied compounds. In order to measure the unspecific binding, 10 μM phentolamine (for [^3H]-prazosin) or 10 μM clonidine (for [^3H]-clonidine) were utilized. The incubation was completed by rapid filtration through Whatman GF/C filters using a vacuum manifold (Millipore). The filters were then washed twice with the assay buffer and placed in scintillation vials with a liquid scintillation cocktail. Radioactivity was measured in a WALLAC 1409 DSA liquid scintillation counter (Perkin Elmer, USA). All the assays were performed in duplicates, and the inhibitory constants (Ki) were calculated.

[4] = tested on: pressor response to methoxamine in rats; test: Influence on blood vasopressor response to methoxamine in rats; type: in vivo, rat; conditions: 5 mg/kg iv, methoxamine 150 μg/kg before and 5 min after compound
Method in brief: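 Anaesthetised (thiopental 75 mg/kg ip) normotensive Wistar rats, carotid artery cannulated. Pressor response to methoxamine (150 µg/kg, iv) recorded before and 5 min after test compound, given at its lowest hypotensive dose, after 15-min stabilisation.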

[5] = 2.5 mg/kg iv, 0 min (before administration)
[6] = 5.0 mg/kg iv, 0 min (before administration)
[7] = 0.25 mg/kg iv 15 min before adrenaline 20 μg/kg
[8] = 0.5 mg/kg iv 15 min before adrenaline 20 μg/kg
[9] = 1 mg/kg iv 15 min before adrenaline 20 μg/kg
[10] = 0 min (prior to administration)

## COc1ccccc1N1CCN(Cc2ccc(COc3ccccc3C(N)=O)cc2)CC1.Cl [JJGW12, 2-[(4-{[4-(2-metoxyphenyl)piperazin-1-ylo]methyl}phenyl)metoxy}benzamide hydrochloride]
[1]
  Blocks: 5/6
  Bradycardia: 6/6
  Extrasystoles: 6/6
  Fibrillations: 5/6
  Mortality: 6/6
[2]
  Blocks: 6/6
  Bradycardia: 6/6
  Extrasystoles: 6/6
  Fibrillations: 4/6
  Mortality: 6/6
Normotensive rats; [5]
  DBP—diastolic blood pressure: 95.0 ± 16.0 mmHg
  SBP—systolic blood pressure: 122.2 ± 15.6 mmHg
Normotensive rats; 2.5 mg/kg iv, 5 min
  DBP—diastolic blood pressure: 94.5 ± 16.5 mmHg
  SBP—systolic blood pressure: 120.7 ± 13.8 mmHg
Normotensive rats; 2.5 mg/kg iv, 10 min
  DBP—diastolic blood pressure: 87.5 ± 23.0 mmHg
  SBP—systolic blood pressure: 114.5 ± 10.6 mmHg
Normotensive rats; 2.5 mg/kg iv, 20 min
  DBP—diastolic blood pressure: 83.5 ± 22.4 mmHg
  SBP—systolic blood pressure: 109.7 ± 9.3 mmHg
Normotensive rats; 2.5 mg/kg iv, 30 min
  DBP—diastolic blood pressure: 84.0 ± 21.4 mmHg
  SBP—systolic blood pressure: 106.5 ± 13.1 mmHg
Normotensive rats; 2.5 mg/kg iv, 40 min
  DBP—diastolic blood pressure: 87.8 ± 16.7 mmHg
  SBP—systolic blood pressure: 108.8 ± 11.8 mmHg
Normotensive rats; 2.5 mg/kg iv, 50 min
  DBP—diastolic blood pressure: 89.3 ± 13.4 mmHg
  SBP—systolic blood pressure: 110.0 ± 7.5 mmHg
Normotensive rats; 2.5 mg/kg iv, 60 min
  DBP—diastolic blood pressure: 89.2 ± 13.9 mmHg
  SBP—systolic blood pressure: 110.5 ± 8.1 mmHg
Normotensive rats; [6]
  DBP—diastolic blood pressure: 95.7 ± 6.0 mmHg
  SBP—systolic blood pressure: 122.5 ± 11.9 mmHg
Normotensive rats; 5 mg/kg iv, 50th min since administration
  decrease of the systolic blood pressure: 13%
Normotensive rats; 5.0 mg/kg iv, 5 min
  DBP—diastolic blood pressure: 87.7 ± 7.0 mmHg
  SBP—systolic blood pressure: 120.7 ± 9.8 mmHg
Normotensive rats; 5.0 mg/kg iv, 10 min
  DBP—diastolic blood pressure: 89.3 ± 8.1 mmHg
  SBP—systolic blood pressure: 114.5 ± 9.1 mmHg
Normotensive rats; 5.0 mg/kg iv, 20 min
  DBP—diastolic blood pressure: 88.5 ± 9.0 mmHg
  SBP—systolic blood pressure: 112.8 ± 10.0 mmHg
Normotensive rats; 5.0 mg/kg iv, 30 min
  DBP—diastolic blood pressure: 87.8 ± 8.8 mmHg
  SBP—systolic blood pressure: 111.5 ± 10.4 mmHg
Normotensive rats; 5.0 mg/kg iv, 40 min
  DBP—diastolic blood pressure: 87.8 ± 8.7 mmHg
  SBP—systolic blood pressure: 113.0 ± 11.9 mmHg
Normotensive rats; 5.0 mg/kg iv, 50 min
  DBP—diastolic blood pressure: 85.8 ± 8.1 mmHg
  SBP—systolic blood pressure: 107.0 ± 12.7 ^a mmHg
Normotensive rats; 5.0 mg/kg iv, 60 min
  DBP—diastolic blood pressure: 86.7 ± 10.7 mmHg
  SBP—systolic blood pressure: 109.8 ± 12.2 mmHg
Normotensive rats; 5 mg/kg iv, normotensive rats
  influence on the diastolic blood pressure: did not influence the diastolic blood pressure
[3]; [7]
  Blocks: 6/6
  Bradycardia: 5/6
  Extrasystoles: 6/6
  Mortality: 3/6
[3]; [8]
  Blocks: 4/5
  Bradycardia: 3/5
  Extrasystoles: 4/5
  Mortality: 0/5
[3]; [9]
  Blocks: 3/5
  Bradycardia: 1/5
  Extrasystoles: 3/5
  Mortality: 0/5
[3]; prophylactic, iv 15 min before adrenaline 20 μg/kg, confidence limits in brackets (Litchfield and Wilcoxon)
  ED50: 0.44 (0.10–1.98) mg/kg
Normal ECG in rats
  effect on the heart rate during the ECG recording: did not affect the heart rate
Normal ECG in rats; [10]
  HR—heart rate: 254.6 ± 41.2
  PQ interval: 44.1 ± 6.2
  QRS complex: 41.9 ± 2.1
  QTc (Bazzett's formula): 190.8 ± 15.2
Normal ECG in rats; 5 min
  HR—heart rate: 256.8 ± 47.1
  PQ interval: 43.6 ± 1.2
  QRS complex: 44.5 ± 3.6
  QTc (Bazzett's formula): 194.3 ± 16.8
Normal ECG in rats; 10 min
  HR—heart rate: 255.2 ± 53.6
  PQ interval: 45.9 ± 2.4
  QRS complex: 44.2 ± 2.3
  QTc (Bazzett's formula): 190.3 ± 25.9
Normal ECG in rats; 15 min
  HR—heart rate: 250.2 ± 51.5
  PQ interval: 45.5 ± 3.1
  QRS complex: 45.2 ± 5.9
  QTc (Bazzett's formula): 195.8 ± 25.5
α2-adrenergic receptors
  Adrenergic Receptors—pKi α2: 6.11 ± 0.01
[4]
  attenuation of the methoxamine pressor response: 97%
